ChEMBL document CHEMBL1131500, “Novel biologically active nonpeptidic inhibitors of myristoylCoA:protein N-myristoyltransferase” (J Med Chem, 1998)
In brackets after ≈: the same amount, converted by molar mass.

Tests used:
[1] = biological target: T1, Glycylpeptide N-tetradecanoyltransferase (Candida albicans (strain SC5314 / ATCC MYA-2876) (Yeast), UniProt P30418); assay: compound was tested for the inhibition potency against Candida albicans N-myristoyltransferase (NMT) using peptide substrate GNAASARR-NH2 at its apparent Km and myristoylCoA at 1 uM
T1 sequence (P30418 whole entry): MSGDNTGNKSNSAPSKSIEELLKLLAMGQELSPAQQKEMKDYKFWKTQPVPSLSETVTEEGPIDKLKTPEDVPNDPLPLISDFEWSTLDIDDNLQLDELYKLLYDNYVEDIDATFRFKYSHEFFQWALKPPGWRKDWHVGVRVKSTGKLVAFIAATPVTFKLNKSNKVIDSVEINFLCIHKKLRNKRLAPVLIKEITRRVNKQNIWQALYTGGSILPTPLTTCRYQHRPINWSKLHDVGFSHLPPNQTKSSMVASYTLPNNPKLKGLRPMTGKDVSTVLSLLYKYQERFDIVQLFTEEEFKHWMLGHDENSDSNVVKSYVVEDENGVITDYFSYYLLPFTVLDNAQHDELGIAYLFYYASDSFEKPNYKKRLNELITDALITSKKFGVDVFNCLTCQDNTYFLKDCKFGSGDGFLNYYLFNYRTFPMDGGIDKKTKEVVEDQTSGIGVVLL

Candida albicans [2] = assay: compound was tested for the effective concentration against Candida albicans for 24 hr; format: functional, organism-based
[3] = biological target: T2, Peptide N-myristoyltransferase (Homo sapiens, UniProt P30419+O60551); assay: compound was tested for the inhibition potency against human N-myristoyltransferase (NMT) using peptide substrate GNAASARR-NH2 at its apparent Km and myristoylCoA at 1 uM; format: protein assay
T2 sequence (P30419 whole entry): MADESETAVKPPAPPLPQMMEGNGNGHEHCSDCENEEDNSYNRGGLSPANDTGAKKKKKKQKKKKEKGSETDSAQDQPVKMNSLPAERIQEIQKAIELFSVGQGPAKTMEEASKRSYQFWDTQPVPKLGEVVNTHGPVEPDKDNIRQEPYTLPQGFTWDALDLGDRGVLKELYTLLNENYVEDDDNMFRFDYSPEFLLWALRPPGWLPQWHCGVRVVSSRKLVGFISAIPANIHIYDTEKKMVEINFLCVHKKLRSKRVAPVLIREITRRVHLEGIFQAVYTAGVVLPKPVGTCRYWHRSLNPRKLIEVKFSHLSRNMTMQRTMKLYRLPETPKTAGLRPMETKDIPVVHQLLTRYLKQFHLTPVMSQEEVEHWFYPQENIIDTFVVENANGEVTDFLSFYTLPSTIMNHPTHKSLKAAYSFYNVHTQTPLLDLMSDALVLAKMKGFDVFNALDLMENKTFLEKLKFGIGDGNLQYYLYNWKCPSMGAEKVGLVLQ
T2 sequence (O60551 whole entry): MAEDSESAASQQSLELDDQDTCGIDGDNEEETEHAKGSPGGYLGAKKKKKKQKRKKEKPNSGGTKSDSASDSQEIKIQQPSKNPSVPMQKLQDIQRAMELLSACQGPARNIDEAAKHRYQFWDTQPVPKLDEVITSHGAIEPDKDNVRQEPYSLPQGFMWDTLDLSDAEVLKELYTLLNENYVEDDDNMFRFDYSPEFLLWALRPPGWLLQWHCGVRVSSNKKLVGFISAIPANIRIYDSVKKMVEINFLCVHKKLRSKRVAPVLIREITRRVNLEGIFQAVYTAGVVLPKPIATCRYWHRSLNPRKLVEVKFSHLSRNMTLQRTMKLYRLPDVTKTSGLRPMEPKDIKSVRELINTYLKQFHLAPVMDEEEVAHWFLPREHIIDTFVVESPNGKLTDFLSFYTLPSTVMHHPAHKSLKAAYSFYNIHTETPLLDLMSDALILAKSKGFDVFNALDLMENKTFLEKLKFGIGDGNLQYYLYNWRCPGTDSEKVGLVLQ

Candida albicans [4] = assay: the fungicidal activity against Candida albicans was reported; format: functional
[5] = biological target: T2, Peptide N-myristoyltransferase; assay: Compound was tested for the inhibition potency against human N-myristoyltransferase (NMT) using peptide substrate GNAASARR-NH2 at its apparent Km and myristoylCoA at 1 uM; format: protein assay
[6] = biological target: T1, Glycylpeptide N-tetradecanoyltransferase; assay: Compound was tested for the inhibition potency against Candida albicans N-myristoyltransferase (NMT) using peptide substrate GNAASARR-NH2 at its apparent Km and myristoylCoA at 1 uM
Candida albicans [7] = assay: Compound was tested for the effective concentration against Candida albicans for 24 hr; format: functional, organism-based
[8] = biological target: T1, Glycylpeptide N-tetradecanoyltransferase; assay: The Compound was tested for the inhibition potency against Candida albicans N-myristoyltransferase (NMT) and reported as apparent Ki

IC50 [1] [µM] | EC50 (Candida albicans [2]) [µM] | IC50 [3] [µM] | IC50 [5] [µM] | IC50 [6] [µM] | EC50 (Candida albicans [7]) [µM] | Compound | MFC (Candida albicans [4]) [µM] | Ki [8] [µM]
17.5 | 77 | 6.5 | – | – | – | Cc1nccn1CCCCc1ccc(CC(=O)N[C@@H](CO)Cc2ccc(OCCC3CCCCC3)c(CCCN)c2)cc1 | 250 (≈ 147 µg/mL) | –
20 | 49 | 64 | – | – | – | Cc1nccn1CCCCc1ccc(CC(=O)N[C@H](CO)Cc2ccc(OCCC3CCCCC3)c(CCCCN)c2)cc1 | 150 (≈ 90.4 µg/mL) | –
– | – | – | 62.3 | 29.3 | 56 | Cc1nccn1CCCCc1ccc(CC(=O)N[C@H](CO)Cc2ccc(OCCC3CCCCC3)c(CCCN)c2)cc1 | – | –
– | – | – | – | – | – | H-ALYASKLS-NH2 | – | 15.3
